ChEMBL document CHEMBL3507680, “University of Dundee, Gates Library screen for HepG2 cell viability”

Experiment: Human HepG2 cell viability assay in 384 well format
Assay type: toxicity, cell-based
Set-up: dose 125 nL, time 70.5 hour; cytotoxicity at 70.5 h: concentration not given beside the values
Conditions: HepG2 cells, read-out: Inhibition

Row | Structure (SMILES) | cytotoxicity at 70.5 h
1 | COCCN1CCCC(c2nccnc2-c2cccc(Cl)c2)C1 (centres undefined) | 21%
2 | OC1CCN(CCCNc2nccc(C3CCCC3)n2)CC1 | -2.73%
3 | Cc1noc(C)c1CN1CCN(C(=O)CCn2cncn2)CC1 | -6%
4 | CC(=O)N1CC[C@@H]2CN(C(=O)c3ccco3)CCO[C@@H]2C1 | -29.3%
5 | COC(=O)C1Cc2nc[nH]c2CN1Cc1ccc(Sc2ncccn2)o1 (centres undefined) | -0.897%
6 | Cc1cc(N2CCOCC2)nc(N(C)CCO)c1C#N | -5.45%
7 | Cc1cc(OCC(=O)NC(C)c2ccc(N3CCOCC3)cc2)no1 (centres undefined) | -3.83%
8 | COc1ccc(C(=O)NS(C)(=O)=O)cc1-c1ccccc1 | -1.59%
9 | O[C@H]1CN(CCCOc2ccccc2F)CC[C@@]12CCCO2 | -2.73%
10 | OC(CNCc1nnc2ccccn12)c1ccc2c(c1)OCCCO2 (centres undefined) | -8.23%
11 | Cc1ccc(NC2CCN(C(=O)c3ccc(C(N)=O)s3)CC2)nn1 | -5.83%
12 | COc1ccc(OC)c2c(C)cc(N(CCO)CCO)nc12 | 19.5%
13 | CCCOC(=O)N1CCCC2(CCN(Cc3cccc(C#N)c3)C2)C1 (centres undefined) | -6.05%
14 | c1cnc2c(c1)cc([C@@H]1CCCO1)n2CCN1CCCCC1 | 0.422%
15 | CN(Cc1c[nH]nc1-c1ccc(F)cc1F)Cc1nccn1C | 21.7%
16 | CN(C)[C@@H]1CCN(C(=O)C2CCOCC2)[C@H]1Cc1ccncc1 | 6.4%
17 | CCN(CC)CC(=O)NCCc1csc(N2CCCC2)n1 | -3.59%
18 | Cc1ccc(-c2cc(C(=O)NC(C)C(=O)N3CCCCC3)on2)cc1 (centres undefined) | 5.48%
19 | Cc1nn(CN(Cc2ccsc2)C2CC2)c(=O)c2noc(C)c12 | -8.61%
20 | CCCc1cc(C(=O)N2CCC3(CCCN(CCOC)C3=O)C2)cs1 (centres undefined) | -7.15%
21 | Cc1nc(CNC(=O)NC(C)c2ccc3c(c2)OCCO3)cs1 (centres undefined) | 53.9%
22 | Cc1[nH]c2c(F)cccc2c1CC(=O)N1CCN(C2CCSCC2)CC1 | -19.7%

Row | Structure (SMILES) | cytotoxicity at 70.5 h
23 | Cc1cccc(CNC(CN2CCN(C)CC2)c2ccccc2)c1 (centres undefined) | 10.9%
24 | Cc1nn(C)c(N(C)C)c1CNCC(O)c1ccccc1F (centres undefined) | -15.4%
25 | Cc1nc(C2CCCN(C(=O)c3cnn(C4CCCCC4)c3)C2)no1 (centres undefined) | -1.22%
26 | CNC(=O)c1ccc(C2CN(c3cc(C)nc(N)n3)CCO2)nc1 (centres undefined) | 20%
27 | COc1ncccc1CN1C[C@H]2CCN(C(C)C)C[C@H]2C1 | -4.86%
28 | Cc1ccc(C(=O)N2CCC3(CCN(C(=O)c4cccnc4)C3)CC2)o1 | -19.3%
29 | O=C(NCCN1CCCCCC1=O)c1ccn(-c2ccc(F)cc2)n1 | -6.58%
30 | Cc1cc(C(=O)NCCN2CCCc3ccccc32)[nH]n1 | 22.8%
31 | O=C1N(Cc2cccnc2)C[C@H]2CN(S(=O)(=O)c3ccccc3)CCN12 | 1.73%
32 | Cc1nn(C)c(C)c1C(=O)NC(C)CC(=O)c1cccs1 (centres undefined) | -11.1%
33 | O=c1[nH][nH]cc1-c1ccnc(NCCc2cccnc2)n1 | -2.07%
34 | COCCCNC(=O)CN1CCC(c2ccccc2)C1 (centres undefined) | -7.32%
35 | Cn1nc2c(cc1=O)CN(Cc1nc(C(C)(C)C)no1)CC2 | -5.46%
36 | c1ccc(CCCN2CC(n3cccn3)C2)cc1 | -2.22%
37 | OCC(O)CSCc1cn(-c2ccc(F)c(Cl)c2)nn1 (centres undefined) | -7.46%
38 | CCn1cc(C(=O)NCc2csc(C3CC3)n2)c(C)n1 | -3.62%
39 | Cc1nc(NCc2ccc(C)o2)cc(C(=O)N2CCOCC2)n1 | -9.84%
40 | CS(=O)(=O)NCC1CCCCN1C(=O)c1cccc(C(F)(F)F)c1 (centres undefined) | -0.142%
41 | Cn1ccnc1CN1CCN2C[C@H](Oc3cccc(F)c3)C[C@H]2C1 | 11.9%
42 | O=C(Cc1ccccc1)N1CC[C@H]2[C@@H]1CCC(=O)N2Cc1ccncc1 | 1.86%
43 | Cc1csc(CN2CC[C@H]3C[C@@H](c4nnc(C)[nH]4)O[C@@H]3C2)n1 | 0.739%
44 | Cc1cccnc1NC(=O)C(C)Cn1nc(C(F)(F)F)cc1C (centres undefined) | -4.08%
